Key:
[1] = test system: H292; assay: Cell viability assay (CellTiter-Meiluncell Luminescent), tumor cell proliferation, H292; details: Homo sapiens, NCI-H292, 96 h; for inhibition at 0.01 µM: read-out: Inhibition Rate at 10 nM (%); for inhibition at 0.5 µM: read-out: Inhibition Rate at 500 nM (%)
[2] = test system: MDA-MB-231; assay: Cell viability assay (CellTiter-Meiluncell Luminescent), tumor cell proliferation, MDA-MB-231; details: Homo sapiens, MDA-MB-231, 96 h; for inhibition at 0.01 µM: read-out: Inhibition Rate at 10 nM (%); for inhibition at 0.5 µM: read-out: Inhibition Rate at 500 nM (%)
Description: The tumor cells used herein were cultured in a cell culture medium listed in table 2 at 37°C in an incubator with 5% CO2. Prior to experimentation, all cell lines used were correctly identified by STR profiling, and tested negative for mycoplasma contamination using a mycoplasma detection kit through routine screenings.
On the following day, the test compounds of the present disclosure were subjected to serial dilution. […] Subsequently, 0.5 µL of the test compound dilution was transferred into the 96-well plate containing the cells, with each well containing 100 µL of cell culture medium. […] Into the 96-well plate, the diluted test compounds and corresponding detection reagents were added, resulting in final test compound concentrations of 500 nM and 10 nM, respectively. The experimental procedure is described below using the diluted 2 µM test compound as an example.
After the cells were treated with the compounds of the present disclosure for a specified period, the cell viability assay reagent was added to the culture medium according to the kit's instructions to determine cell viability. […] All controls were treated using the same procedure as the compounds of the present disclosure. The growth inhibition curves for the compounds of the present disclosure were plotted using Prism GraphPad software, and the IC50 values were calculated therefrom.

[3] = biological target: T1, WEE1 (Homo sapiens, UniProt P30291+Q96SW2); assay: Western-blot assay, substrate protein degradation in hPBMCs: WEE1; format: cell-based; details: 24 hours of compound treatment, 50 nM and 500 nM
T1 construct: effects of the compounds of the present disclosure on the expression of target proteins in cells; endogenous in cells; host or cells: human PBMCs (hPBMCs)
T1 sequence (P30291 whole entry): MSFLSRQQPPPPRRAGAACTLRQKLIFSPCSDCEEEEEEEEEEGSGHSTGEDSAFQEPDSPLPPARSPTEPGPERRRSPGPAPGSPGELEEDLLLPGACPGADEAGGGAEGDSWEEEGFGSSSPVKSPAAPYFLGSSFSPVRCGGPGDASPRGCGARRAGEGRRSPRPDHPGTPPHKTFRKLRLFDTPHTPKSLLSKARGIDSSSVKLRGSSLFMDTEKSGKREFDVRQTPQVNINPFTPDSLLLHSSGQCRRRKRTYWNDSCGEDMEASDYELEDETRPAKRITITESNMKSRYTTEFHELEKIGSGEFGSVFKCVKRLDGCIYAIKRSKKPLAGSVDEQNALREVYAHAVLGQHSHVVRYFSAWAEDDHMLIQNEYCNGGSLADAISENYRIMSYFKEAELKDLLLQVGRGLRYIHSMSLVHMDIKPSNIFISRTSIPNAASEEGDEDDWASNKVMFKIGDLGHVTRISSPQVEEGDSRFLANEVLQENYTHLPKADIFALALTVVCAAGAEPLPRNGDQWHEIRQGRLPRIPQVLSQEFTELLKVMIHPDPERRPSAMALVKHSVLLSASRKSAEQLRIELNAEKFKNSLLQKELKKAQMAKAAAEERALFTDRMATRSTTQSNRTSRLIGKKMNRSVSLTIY
T1 sequence (Q96SW2 whole entry): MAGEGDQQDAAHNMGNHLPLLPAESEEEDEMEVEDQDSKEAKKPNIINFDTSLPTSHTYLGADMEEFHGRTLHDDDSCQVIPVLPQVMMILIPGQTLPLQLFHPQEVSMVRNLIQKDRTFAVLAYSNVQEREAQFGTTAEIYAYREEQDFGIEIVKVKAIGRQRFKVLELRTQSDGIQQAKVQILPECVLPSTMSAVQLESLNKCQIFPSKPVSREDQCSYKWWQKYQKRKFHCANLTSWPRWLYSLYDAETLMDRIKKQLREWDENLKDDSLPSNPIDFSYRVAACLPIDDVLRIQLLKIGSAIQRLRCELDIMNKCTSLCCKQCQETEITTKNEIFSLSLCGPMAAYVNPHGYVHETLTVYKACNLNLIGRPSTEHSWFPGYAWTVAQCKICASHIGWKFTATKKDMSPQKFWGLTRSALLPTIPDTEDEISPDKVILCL
T1 sequence (Q16531 whole entry partner): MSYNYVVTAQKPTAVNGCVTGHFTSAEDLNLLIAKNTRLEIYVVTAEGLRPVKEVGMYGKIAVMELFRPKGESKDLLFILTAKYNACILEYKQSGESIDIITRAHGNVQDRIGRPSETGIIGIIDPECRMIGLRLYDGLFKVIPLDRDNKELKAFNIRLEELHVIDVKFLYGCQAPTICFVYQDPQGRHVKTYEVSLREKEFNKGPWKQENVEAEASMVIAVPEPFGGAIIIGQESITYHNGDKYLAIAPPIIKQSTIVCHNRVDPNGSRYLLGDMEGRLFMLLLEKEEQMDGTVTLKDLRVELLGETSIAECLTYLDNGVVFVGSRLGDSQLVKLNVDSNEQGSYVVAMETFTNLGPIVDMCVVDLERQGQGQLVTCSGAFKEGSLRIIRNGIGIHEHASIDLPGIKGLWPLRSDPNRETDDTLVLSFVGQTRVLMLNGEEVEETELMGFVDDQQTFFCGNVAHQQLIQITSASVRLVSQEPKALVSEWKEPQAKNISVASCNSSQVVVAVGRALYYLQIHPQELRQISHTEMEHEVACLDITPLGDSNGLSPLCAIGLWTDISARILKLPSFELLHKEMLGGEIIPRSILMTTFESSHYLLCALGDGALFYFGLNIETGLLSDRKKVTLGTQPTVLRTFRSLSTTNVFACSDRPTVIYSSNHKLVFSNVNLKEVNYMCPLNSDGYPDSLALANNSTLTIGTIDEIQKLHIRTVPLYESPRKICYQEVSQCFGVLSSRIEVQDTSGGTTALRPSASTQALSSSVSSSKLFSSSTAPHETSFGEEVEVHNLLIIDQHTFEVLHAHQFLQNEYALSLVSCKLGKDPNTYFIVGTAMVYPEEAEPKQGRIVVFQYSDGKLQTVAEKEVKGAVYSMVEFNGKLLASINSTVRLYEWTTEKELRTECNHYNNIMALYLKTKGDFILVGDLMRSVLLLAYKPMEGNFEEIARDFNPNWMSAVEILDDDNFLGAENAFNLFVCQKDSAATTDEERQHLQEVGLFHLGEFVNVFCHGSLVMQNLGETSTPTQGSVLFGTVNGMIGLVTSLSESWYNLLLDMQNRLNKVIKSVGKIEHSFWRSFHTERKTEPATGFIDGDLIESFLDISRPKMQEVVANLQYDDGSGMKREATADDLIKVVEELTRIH

[4] = biological target: T2, IKZF1 (Homo sapiens, UniProt Q13422+Q96SW2); assay: Western-blot assay, substrate protein degradation in hPBMCs: IKZF1; format: cell-based; details: 24 hours of compound treatment, 50 nM and 500 nM
T2 construct: effects of the compounds of the present disclosure on the expression of target proteins in cells; endogenous in cells; host or cells: human PBMCs (hPBMCs)
T2 sequence (Q13422 whole entry): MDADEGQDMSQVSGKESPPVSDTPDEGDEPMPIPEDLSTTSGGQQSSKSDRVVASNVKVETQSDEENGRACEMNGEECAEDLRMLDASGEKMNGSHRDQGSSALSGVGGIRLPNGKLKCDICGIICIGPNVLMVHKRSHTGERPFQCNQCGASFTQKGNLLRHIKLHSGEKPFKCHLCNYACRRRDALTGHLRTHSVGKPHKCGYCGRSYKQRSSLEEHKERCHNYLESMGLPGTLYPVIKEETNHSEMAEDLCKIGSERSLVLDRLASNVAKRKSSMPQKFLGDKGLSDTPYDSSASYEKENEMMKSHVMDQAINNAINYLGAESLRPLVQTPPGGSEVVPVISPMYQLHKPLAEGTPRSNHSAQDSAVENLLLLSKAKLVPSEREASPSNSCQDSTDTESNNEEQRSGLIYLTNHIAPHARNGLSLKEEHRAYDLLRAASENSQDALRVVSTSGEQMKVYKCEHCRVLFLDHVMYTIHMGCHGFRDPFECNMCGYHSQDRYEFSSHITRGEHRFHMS
T2 sequence (Q96SW2 whole entry): as the sequence (Q96SW2 whole entry) above
T2 sequence (Q16531 whole entry partner): as the sequence (Q16531 whole entry partner) above

[5] = biological target: T3, IKZF2 (Homo sapiens, UniProt Q96SW2+Q9UKS7); assay: Western-blot assay, substrate protein degradation in hPBMCs: IKZF2; format: cell-based; details: 24 hours of compound treatment, 50 nM and 500 nM
T3 construct: effects of the compounds of the present disclosure on the expression of target proteins in cells; endogenous in cells; host or cells: human PBMCs (hPBMCs)
T3 sequence (Q9UKS7 whole entry): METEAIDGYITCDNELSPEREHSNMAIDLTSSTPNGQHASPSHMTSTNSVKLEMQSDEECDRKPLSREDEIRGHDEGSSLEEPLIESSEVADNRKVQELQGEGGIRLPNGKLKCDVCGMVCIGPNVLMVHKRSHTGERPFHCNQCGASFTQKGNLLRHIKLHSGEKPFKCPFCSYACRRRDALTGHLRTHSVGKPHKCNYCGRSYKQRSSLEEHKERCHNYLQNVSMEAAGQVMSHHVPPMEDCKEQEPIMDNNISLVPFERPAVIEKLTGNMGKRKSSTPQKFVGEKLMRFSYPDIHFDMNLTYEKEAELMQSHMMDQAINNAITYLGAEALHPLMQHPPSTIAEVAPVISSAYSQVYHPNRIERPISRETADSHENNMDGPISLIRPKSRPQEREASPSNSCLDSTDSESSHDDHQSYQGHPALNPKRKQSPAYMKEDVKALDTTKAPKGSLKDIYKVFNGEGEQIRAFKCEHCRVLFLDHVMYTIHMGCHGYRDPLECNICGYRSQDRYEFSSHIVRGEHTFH
T3 sequence (Q96SW2 whole entry): as the sequence (Q96SW2 whole entry) above
T3 sequence (Q16531 whole entry partner): as the sequence (Q16531 whole entry partner) above

[6] = biological target: T4, IKZF3 (Homo sapiens, UniProt Q96SW2+Q9UKT9); assay: Western-blot assay, substrate protein degradation in hPBMCs: IKZF3; format: cell-based; details: 24 hours of compound treatment, 50 nM and 500 nM
T4 construct: effects of the compounds of the present disclosure on the expression of target proteins in cells; endogenous in cells; host or cells: human PBMCs (hPBMCs)
T4 sequence (Q9UKT9 whole entry): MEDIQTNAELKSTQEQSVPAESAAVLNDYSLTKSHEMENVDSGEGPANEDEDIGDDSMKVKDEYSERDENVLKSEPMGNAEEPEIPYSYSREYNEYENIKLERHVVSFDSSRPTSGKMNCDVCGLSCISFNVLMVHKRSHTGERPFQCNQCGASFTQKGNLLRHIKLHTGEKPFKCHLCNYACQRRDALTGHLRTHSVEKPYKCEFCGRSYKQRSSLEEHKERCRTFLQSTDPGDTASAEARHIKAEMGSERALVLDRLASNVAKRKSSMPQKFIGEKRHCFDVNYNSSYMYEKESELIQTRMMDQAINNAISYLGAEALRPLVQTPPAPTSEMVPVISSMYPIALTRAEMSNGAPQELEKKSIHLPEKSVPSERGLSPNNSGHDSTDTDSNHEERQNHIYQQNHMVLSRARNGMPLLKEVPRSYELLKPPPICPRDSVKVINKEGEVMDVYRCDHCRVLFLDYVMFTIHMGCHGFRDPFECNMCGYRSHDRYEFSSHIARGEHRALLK
T4 sequence (Q96SW2 whole entry): as the sequence (Q96SW2 whole entry) above
T4 sequence (Q16531 whole entry partner): as the sequence (Q16531 whole entry partner) above

[7] = biological target: T5, CK1α (Homo sapiens, UniProt P48729+Q96SW2); assay: Western-blot assay, substrate protein degradation in hPBMCs: CK1α; format: cell-based; details: 24 hours of compound treatment, 50 nM and 500 nM
T5 construct: effects of the compounds of the present disclosure on the expression of target proteins in cells; endogenous in cells; host or cells: human PBMCs (hPBMCs)
T5 sequence (P48729 whole entry): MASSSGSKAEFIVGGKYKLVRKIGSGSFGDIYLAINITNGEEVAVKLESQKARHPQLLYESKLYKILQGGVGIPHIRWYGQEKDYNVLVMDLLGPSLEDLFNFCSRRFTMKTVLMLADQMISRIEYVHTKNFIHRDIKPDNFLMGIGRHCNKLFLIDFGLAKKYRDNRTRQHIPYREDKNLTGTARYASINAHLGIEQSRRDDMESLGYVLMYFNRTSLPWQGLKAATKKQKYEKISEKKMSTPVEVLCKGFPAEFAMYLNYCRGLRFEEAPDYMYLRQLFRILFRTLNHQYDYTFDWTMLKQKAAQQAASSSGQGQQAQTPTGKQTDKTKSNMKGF
T5 sequence (Q96SW2 whole entry): as the sequence (Q96SW2 whole entry) above
T5 sequence (Q16531 whole entry partner): as the sequence (Q16531 whole entry partner) above

[8] = biological target: T6, GSPT1 (Homo sapiens, UniProt P15170+Q96SW2); assay: Western-blot assay, substrate protein degradation in hPBMCs: GSPT1; format: cell-based; details: 24 hours of compound treatment, 50 nM and 500 nM
T6 construct: effects of the compounds of the present disclosure on the expression of target proteins in cells; endogenous in cells; host or cells: human PBMCs (hPBMCs)

[9] = test system: MV-4-11; assay: Cell viability assay (CellTiter-Meiluncell Luminescent), tumor cell proliferation, MV-4-11; details: Homo sapiens, MV4-11, 96 h; for inhibition at 0.01 µM: read-out: Inhibition Rate at 10 nM (%); for inhibition at 0.5 µM: read-out: Inhibition Rate at 500 nM (%)

SMILES	inhibition at 0.01 µM [1] [%]	inhibition at 0.5 µM [1] [%]	inhibition at 0.01 µM [2] [%]	inhibition at 0.5 µM [2] [%]	substrate protein remaining % WEE1 [3]	substrate protein remaining % IKZF1 [4]	substrate protein remaining % IKZF2 [5]	substrate protein remaining % IKZF3 [6]	substrate protein remaining % CK1α [7]	substrate protein remaining % GSPT1 [8]	inhibition at 0.01 µM [9] [%]	inhibition at 0.5 µM [9] [%]
CC1(C)[C@@H]2CC[C@]1(CS(=O)(=O)NCc1ccc3c(c1)C(=O)N(N1CCC(=O)NC1=O)C3=O)C(=O)C2 [GT-07998, 1-((1R,4R)-7,7-dimethyl-2-oxobicyclo[2.2.1]heptan-1-yl)-N-((2-(2,4-dioxotetrahydropyrimidin-1(2H)-yl)-1,3-dioxoisoindolin-5-yl)methyl)methanesulfonamide]	15 to 20	1 to 5	25 to 40	10 to 15	–	–	–	–	–	–	–	–
Cc1csc2ncnc(N3CCN(Cc4ccc5c(c4)CN(N4CCC(=O)NC4=O)C5=O)CC3)c12 [GT-08058, 1-(5-((4-(5-methylthieno[2,3-d]pyrimidin-4-yl)piperazin-1-yl)methyl)-1-oxoisoindolin-2-yl)dihydropyrimidine-2,4(1H,3H)-dione]	–	–	25 to 40	15 to 18	B (80%< substrate protein remaining %≤ 100%)	A (0% ≤ substrate protein remaining % ≤ 80%)	B (80%< substrate protein remaining %≤ 100%)	B (80%< substrate protein remaining %≤ 100%)	B (80%< substrate protein remaining %≤ 100%)	B (80%< substrate protein remaining %≤ 100%)	–	–
Cc1nc(N2CCN(Cc3ccc4c(c3)CN(N3CCC(=O)NC3=O)C4=O)CC2)c2ccsc2n1 [GT-08067, 1-(5-((4-(2-methylthieno[2,3-d]pyrimidin-4-yl)piperazin-1-yl)methyl)-1-oxoisoindolin-2-yl)dihydropyrimidine-2,4(1H,3H)-dione]	20 to 40	20 to 40	–	–	B (80%< substrate protein remaining %≤ 100%)	B (80%< substrate protein remaining %≤ 100%)	A (0% ≤ substrate protein remaining % ≤ 80%)	B (80%< substrate protein remaining %≤ 100%)	B (80%< substrate protein remaining %≤ 100%)	B (80%< substrate protein remaining %≤ 100%)	60 to 80	40 to 60
Cc1nc(N2CCN(Cc3ccc4c(c3)CN(N3CCC(=O)NC3=O)C4=O)CC2)c2c3c(sc2n1)CCCC3 [GT-08068, 1-(5-((4-(2-methyl-5,6,7,8-tetrahydrobenzo[4,5]thieno[2,3-d]pyrimidin-4-yl)piperazin-1-yl)methyl)-1-oxoisoindolin-2-yl)dihydropyrimidine-2,4(1H,3H)-dione]	20 to 40	20 to 40	–	–	B (80%< substrate protein remaining %≤ 100%)	B (80%< substrate protein remaining %≤ 100%)	A (0% ≤ substrate protein remaining % ≤ 80%)	B (80%< substrate protein remaining %≤ 100%)	A (0% ≤ substrate protein remaining % ≤ 80%)	B (80%< substrate protein remaining %≤ 100%)	18 to 25	18 to 25
Cc1cc2c(N3CCN(Cc4ccc5c(c4)C(=O)N(N4CCC(=O)NC4=O)C5=O)CC3)ncnc2s1 [GT-08092, 2-(2,4-dioxotetrahydropyrimidin-1(2H)-yl)-5-((4-(6-methylthieno[2,3-d]pyrimidin-4-yl)piperazin-1-yl)methyl)isoindoline-1,3-dione]	–	–	–	–	A (0% ≤ substrate protein remaining % ≤ 80%)	B (80%< substrate protein remaining %≤ 100%)	B (80%< substrate protein remaining %≤ 100%)	B (80%< substrate protein remaining %≤ 100%)	A (0% ≤ substrate protein remaining % ≤ 80%)	A (0% ≤ substrate protein remaining % ≤ 80%)	10 to 18	30 to 40
Cc1sc2ncnc(N3CCCN(Cc4ccc5c(c4)C(=O)N(N4CCC(=O)NC4=O)C5=O)CC3)c2c1C [GT-08095, 5-((4-(5,6-dimethylthieno[2,3-d]pyrimidin-4-yl)-1,4-diazepan-1-yl)methyl)-2-(2,4-dioxotetrahydropyrimidin-1(2H)-yl)isoindoline-1,3-dione]	–	–	–	–	A (0% ≤ substrate protein remaining % ≤ 80%)	B (80%< substrate protein remaining %≤ 100%)	B (80%< substrate protein remaining %≤ 100%)	B (80%< substrate protein remaining %≤ 100%)	A (0% ≤ substrate protein remaining % ≤ 80%)	B (80%< substrate protein remaining %≤ 100%)	25 to 30	18 to 25
O=C1CCN(N2C(=O)c3ccc(CN4CCC(c5ncnc6sccc56)CC4)cc3C2=O)C(=O)N1 [GT-08106, 2-(2,4-dioxotetrahydropyrimidin-1(2H)-yl)-5-((4-(thieno[2,3-d]pyrimidin-4-yl)piperidin-1-yl)methyl)isoindoline-1,3-dione]	–	–	–	–	A (0% ≤ substrate protein remaining % ≤ 80%)	B (80%< substrate protein remaining %≤ 100%)	B (80%< substrate protein remaining %≤ 100%)	B (80%< substrate protein remaining %≤ 100%)	B (80%< substrate protein remaining %≤ 100%)	A (0% ≤ substrate protein remaining % ≤ 80%)	10 to 18	18 to 25
Cc1cc2c(C3CCN(Cc4ccc5c(c4)C(=O)N(N4CCC(=O)NC4=O)C5=O)CC3)ncnc2s1 [GT-08107, 2-(2,4-dioxotetrahydropyrimidin-1(2H)-yl)-5-((4-(6-methylthieno[2,3-d]pyrimidin-4-yl)piperidin-1-yl)methyl)isoindoline-1,3-dione]	5 to 10	10 to 15	–	–	A (0% ≤ substrate protein remaining % ≤ 80%)	A (0% ≤ substrate protein remaining % ≤ 80%)	A (0% ≤ substrate protein remaining % ≤ 80%)	A (0% ≤ substrate protein remaining % ≤ 80%)	A (0% ≤ substrate protein remaining % ≤ 80%)	A (0% ≤ substrate protein remaining % ≤ 80%)	30 to 40	40 to 60
O=C1CCN(N2C(=O)c3ccc(CN4CCC(c5ncnc6sc(-c7ccccc7)cc56)CC4)cc3C2=O)C(=O)N1 [GT-08108, 2-(2,4-dioxotetrahydropyrimidin-1(2H)-yl)-5-((4-(6-phenylthieno[2,3-d]pyrimidin-4-yl)piperidin-1-yl)methyl)isoindoline-1,3-dione]	20 to 40	15 to 20	25 to 40	18 to 25	A (0% ≤ substrate protein remaining % ≤ 80%)	A (0% ≤ substrate protein remaining % ≤ 80%)	A (0% ≤ substrate protein remaining % ≤ 80%)	A (0% ≤ substrate protein remaining % ≤ 80%)	A (0% ≤ substrate protein remaining % ≤ 80%)	A (0% ≤ substrate protein remaining % ≤ 80%)	–	–
O=C1CCN(N2C(=O)c3ccc(CN4CCC(c5ncnc6scc(-c7ccccc7)c56)CC4)cc3C2=O)C(=O)N1 [GT-08109, 2-(2,4-dioxotetrahydropyrimidin-1(2H)-yl)-5-((4-(5-phenylthieno[2,3-d]pyrimidin-4-yl)piperidin-1-yl)methyl)isoindoline-1,3-dione]	15 to 20	1 to 5	18 to 25	5 to 10	A (0% ≤ substrate protein remaining % ≤ 80%)	A (0% ≤ substrate protein remaining % ≤ 80%)	A (0% ≤ substrate protein remaining % ≤ 80%)	A (0% ≤ substrate protein remaining % ≤ 80%)	A (0% ≤ substrate protein remaining % ≤ 80%)	A (0% ≤ substrate protein remaining % ≤ 80%)	–	–
O=C1CCN(N2C(=O)c3ccc(CN4CCN(c5nccc(Cl)c5F)CC4)cc3C2=O)C(=O)N1 [GT-08190, 5-((4-(4-chloro-3-fluoropyridin-2-yl)piperazin-1-yl)methyl)-2-(2,4-dioxotetrahydropyrimidin-1(2H)-yl)isoindoline-1,3-dione]	20 to 40	20 to 40	18 to 25	10 to 15	–	–	–	–	–	–	–	–

Reference: patent EP4722207A1, “OXOISOINDOLINYL-SUBSTITUTED TETRAHYDROPYRIMIDINEDIONE DERIVATIVE AND USE THEREOF” (Gluetacs Therapeutics (Shanghai) Co., Ltd., priority 2023, dated 2024)
